The subject of the experiment is genetisch hypertonen Ratten. As to the kind of experiment: Antihypertensive effect (systolic blood pressure, tail cuff) in spontaneously hypertensive rats after oral dosing. The class given is in vivo, Ratte. To be noted: Rattus norvegicus; for change in vivo at 25 µmol/kg: 25 µmol/kg p.o. once daily on four consecutive days; for change in vivo at 10 µmol/kg: 10 µmol/kg p.o. once daily on four consecutive days; for change in vivo at 5 µmol/kg: 5 µmol/kg p.o. once daily on four consecutive days. From the text:
Die antihypertensive Wirksamkeit der erfindungsgemäßen Verbindungen kann am Modell der spontan hypertonen Ratte nachgewiesen werden.
Zur Bestimmung der antihypertensiven Wirkung werden die unten aufgeführten Verbindungen in den angegebenen Dosen an vier aufeinander folgenden Tagen an je 6 männlichen Ratten (Stamm SHR/N/Ibm/Bm, 250-350 g) mit genetisch bedingtem Hochdruck (systolischer Blutdruck > 180 mmHg) täglich einmal mittels Schlundsonde verabfolgt. Die Messung des Blutdrucks erfolgt jeweils 6 und gegebenenfalls 2 oder 24 Studnen nach Substanzgabe.
Die Blutdruckmessung wird in einer Wärmekammer bei 36°C vorgenommen, um eine bessere Durchblutung der Schwanzarterie zu erreichen. Hierzu werden die Tiere in perforierte Lochblechkäfige verbracht und 20 - 40 Min. nach Beginn der Aufwärmung gemessen. Zur Messung des systolischen arteriellen Drucks wird eine ringförmige Manschette mit aufblasbarer Gummimembran zur Unterbindung der Durchblutung und ein ringförmiger Piezokristallaufnehmer zur Erfassung der Pulswellen auf den Schwanz aufgeschoben. Nach erfolgter Unterbindung des Blutstroms in der Schwanzarterie wird der Manschettendruck kontinuierlich reduziert. Die Wiederkehr der Pulswellen bei Druckablassen wird automatisch als systolischer Blutdruck erkannt und ausgedruckt (Bühler, R. er al." Microprocessor-based automation of blood pressure measurement in the conscious rat. Proceedings of the 4th international symposium on rats with spontaneous hypertension and related studies, Rascher, R. et al. (Eds.), Schattauer Verlag, Stuttgart, New York, 1982, S. 410-413). Pulssignale und Druckverlauf werden zur Auswertung graphisch aufgezeichnet.
Zur Gewöhnung an den Meßvorgang werden die Tiere vor Substanzprüfung 14 Tage trainiert. In der zweiten Trainingswoche werden Blutdruck-Vorwerte erhoben. Tiergruppen, die Substanz erhalten, werden gegen eine Kontrollgruppe geprüft.
In der anschließenden Tabelle werden die untersuchten Verbindungen durch laufende Nummern gekennzeichnet, die mit den jewiligen Beispielnummern übereinstimmen.
Tabelle I gibt für die Vertreter der erfindungsgemäßen Verbindungen die prozentuale Senkung des Blutdrucks (BP) nach oraler Verabreichung bei der Ratte wieder.

Setting [1] is: 2h after dosing, mean of days 1+4, male SHR/N/Ibm/Bm rats, N=6, read-out: BP (% Änderung vs. Kontrolle), Mittelwert für Meßzeitpunkte: Stunden nach Gabe (Tage) 2h (1.+4.Tag).
Setting [2] is: 6h after dosing, mean of days 1-4, male SHR/N/Ibm/Bm rats, N=6, read-out: BP (% Änderung vs. Kontrolle), Mittelwert für Meßzeitpunkte: Stunden nach Gabe (Tage) 6h (1.-4.Tag).
Setting [3] is: 24h after dosing, mean of days 1+3, male SHR/N/Ibm/Bm rats, N=6, read-out: BP (% Änderung vs. Kontrolle), Mittelwert für Meßzeitpunkte: Stunden nach Gabe (Tage) 24h (1.+3.Tag).

Where a name gives a salt, the structure may show the parent alone. Read-outs that look alike come from different tables or passages of the source.

In the case of `CC1=C(C(=O)OCCCN2CCC(c3ccccc3)CC2)C(c2cccc([N+](=O)[O-])c2)C(C(=O)O[C@@H]2C[C@H](C)CC[C@H]2C(C)C)=C(C)N1` (stereo partly drawn) [Beispiel 2a, 1,4-Dihydro-2,6-dimethyl-4-(3-nitrophenyl)-pyridin-3,5-dicarbonsäure-3-(-)-menthyl-5-[3-(4-phenylpiperidyl-1)-propyl]-ester-hydrochlorid], the change in vivo at 25 µmol/kg runs as follows: under setting [1], -25%; under setting [2], -24%; under setting [3], -16%.

For the molecule `CC1=C(C(=O)OCCN2CCN(c3ccccn3)CC2)C(c2cccc([N+](=O)[O-])c2)C(C(=O)O[C@@H]2C[C@H](C)CC[C@H]2C(C)C)=C(C)N1` (stereo partly drawn) [Beispiel 5a, 1,4-Dihydro-2,6-dimethyl-4-(3-nitropheny)-pyridin-3,5-dicarbonsäure-3-(-)-menthyl-5-{2-[4-(2-pyridyl)-1-piperazinyl]-ethyl}-ester-fumarat], the change in vivo at 10 µmol/kg is, setting by setting: under setting [1], -29%; under setting [2], -11%; under setting [3], -3%.

As to `COc1ccccc1N1CCN(CCCOC(=O)C2=C(C)NC(C)=C(C(=O)O[C@@H]3C[C@H](C)CC[C@H]3C(C)C)C2c2cccc([N+](=O)[O-])c2)CC1` (stereo partly drawn) [Beispiel 3a, 1,4-Dihydro-2,6-dimethyl-4-(3-nitrophenyl)-pyridin-3,5-dicarbonsäure-3-(-)-menthyl-5-{3-[4-(2-methoxyphenyl)-1-piperazinyl]-propyl}-ester-fumarat], the change in vivo at 25 µmol/kg by setting is: under setting [1], -46%; under setting [2], -42%; under setting [3], -15%.

Turning to `CCOc1ccccc1N1CCN(CCCOC(=O)C2=C(C)NC(C)=C(C(=O)O[C@@H]3C[C@H](C)CC[C@H]3C(C)C)C2c2cccc([N+](=O)[O-])c2)CC1` (single isomer, unassigned) [Beispiel 11, 1,4-Dihydro-2,6-dimethyl-4-(3-nitrophenyl)-pyridin-3,5-dicarbonsäure-3-(-)-menthyl-5-{3-[4-(2-ethoxyphenyl)-1-piperazinyl]-propyl}ester-fumarat], the change in vivo at 10 µmol/kg reads like this: under setting [1], -21%; under setting [2], -26%; under setting [3], -10%.

As for `CC1=C(C(=O)OCCCN(C)Cc2ccccc2)C(c2cccc([N+](=O)[O-])c2)C(C(=O)O[C@@H]2C[C@H](C)CC[C@H]2C(C)C)=C(C)N1` (single isomer, unassigned) [Beispiel 6], the change in vivo at 25 µmol/kg is -27% under setting [1], -33% under setting [2] and -10% under setting [3].

On to `CC1=C(C(=O)OCCN2CCN(c3ccccc3)CC2)C(c2cccc([N+](=O)[O-])c2)C(C(=O)O[C@@H]2C[C@H](C)CC[C@H]2C(C)C)=C(C)N1` (single isomer, unassigned) [Beispiel 4b, 1,4-Dihydro-2,6-dimethyl-4-(3-nitrophenyl)-pyridin-3,5-dicarbonsäure-3-(-)-menthyl-5-[2-(4-phenyl-1-piperazinyl)-ethyl]ester-fumarat], for which the change in vivo at 5 µmol/kg was -18% under setting [1], -16% under setting [2] and 4% under setting [3].

For the molecule `CC1=C(C(=O)OCCCN2CCN(C(c3ccccc3)c3ccccc3)CC2)C(c2cccc([N+](=O)[O-])c2)C(C(=O)O[C@@H]2C[C@H](C)CC[C@H]2C(C)C)=C(C)N1` (single isomer, unassigned) [Beispiel 13, 1,4-Dihydro-2.6-dimethyl-4-(3-nitrophenyl)-pyridin-3,5-dicarbonsäure-3-(-)-menthyl-5-[3-(4-benzhydryl-1-piperazinyl)-propyl]-ester-semifumarat], the change in vivo at 25 µmol/kg is, setting by setting: under setting [1], -30%; under setting [2], -40%; under setting [3], -35%.

Regarding `CC1=C(C(=O)OCCCN2CCC(c3ccccc3)CC2)C(c2cccc([N+](=O)[O-])c2)C(C(=O)O[C@@H]2C[C@H](C)CC[C@H]2C(C)C)=C(C)N1` (single isomer, unassigned) [Beispiel 2b, 1,4-Dihydro-2,6-dimethyl-4-(3-nitrophenyl)-pyridin-3,5-dicarbonsäure-3-(-)-menthyl-5-[3-(4-phenylpiperidyl-1)-propyl]-ester-hydrochlorid], the change in vivo at 25 µmol/kg under setting [1] is -36%, the change in vivo at 25 µmol/kg under setting [2] was -33% and the change in vivo at 25 µmol/kg under setting [3] is -16%.

With `CC1=C(C(=O)OCCCN2CCN(c3ccccc3)CC2)C(c2cccc([N+](=O)[O-])c2)C(C(=O)O[C@@H]2C[C@H](C)CC[C@H]2C(C)C)=C(C)N1` (single isomer, unassigned) [Beispiel 10, 1,4-Dihydro-2,6-dimethyl-4-(3-nitrophenyl)-pyridin-3,5-dicarbonsäure-3-(-)-menthyl-5-[3-(4-phenyl-1-piperazinyl)-propyl]-ester-fumarat], the change in vivo at 25 µmol/kg is -34% under setting [1], -34% under setting [2] and -6% under setting [3].

Regarding `CC1=C(C(=O)OCCCN2CCN(c3ccc4c(c3)OCO4)CC2)C(c2cccc([N+](=O)[O-])c2)C(C(=O)O[C@@H]2C[C@H](C)CC[C@H]2C(C)C)=C(C)N1` (single isomer, unassigned) [Beispiel 16, 1,4-Dihydro-2,6-dimethyl-4-(3-nitrophenyl)-pyridin-3,5-dicarbonsäure-3-(-)-menthyl-5-{3-[4-(3,4-methylendioxyphenyl)-1-piperazinyt]-propyl}ester-fumarat], the change in vivo at 10 µmol/kg was -21% under setting [1], -21% under setting [2] and -7% under setting [3].

`CC1=C(C(=O)OCCN2CCN(c3ccccc3)CC2)C(c2cccc([N+](=O)[O-])c2)C(C(=O)O[C@@H]2C[C@H](C)CC[C@H]2C(C)C)=C(C)N1` (stereo partly drawn) [Beispiel 4a, 1,4-Dihydro-2,6-dimethyl-4-(3-nitrophenyl)-pyridin-3,5-dicarbonsäure-3-(-)-menthyl-5-[2-(4-phenyl-1-piperazinyl)-ethyl]ester-fumarat]: the change in vivo at 5 µmol/kg is -34% under setting [1], -23% under setting [2] and -14% under setting [3].

Consider `CC1=C(C(=O)OCCCN2CCC(C(=O)c3ccc(F)cc3)CC2)C(c2cccc([N+](=O)[O-])c2)C(C(=O)O[C@@H]2C[C@H](C)CC[C@H]2C(C)C)=C(C)N1` (single isomer, unassigned) [Beispiel 7, 1,4-Dihydro-2,6-dimethyl-4-(3-nitrophenyl)-pyridin-3,5-dicarbonsäure-3-(-)-menthyl-5-{3-[4-(4-fluorbenzoyl)-piperidyl-1]-propyl}-ester-hydrochlorid], for which the change in vivo at 10 µmol/kg under setting [1] was -12%, the change in vivo at 10 µmol/kg under setting [2] was -11% and the change in vivo at 10 µmol/kg under setting [3] stood at 5%.

For `CC1=C(C(=O)OCCN2CCN(c3ccccn3)CC2)C(c2cccc([N+](=O)[O-])c2)C(C(=O)O[C@@H]2C[C@H](C)CC[C@H]2C(C)C)=C(C)N1` (single isomer, unassigned) [Beispiel 5b, 1,4-Dihydro-2,6-dimethyl-4-(3-nitropheny)-pyridin-3,5-dicarbonsäure-3-(-)-menthyl-5-{2-[4-(2-pyridyl)-1-piperazinyl]-ethyl}-ester-fumarat], the change in vivo at 10 µmol/kg was -20% under setting [1], -12% under setting [2] and -10% under setting [3].

The values above are taken from patent EP0244595A2, “Dihydropyridine derivatives, process for their preparation and their use as pharmaceutical compounds” (Byk Gulden Lomberg Chemische Fabrik GmbH, priority 1986, dated 1987).
